# Source: patent US20220008359A1, “COMBINATION ANTI-CANCER PRODUCTS AND METHODS” (priority 2020, published 2022)
# Marks after values point to notes of the source that are not given here.
# How the values were obtained:
# [1] = tested on: osimertinib-resistant (OR) H1975 cells; assay: In-cell immunostaining of protein expression and phosphorylation, osimertinib-resistant H1975 cells; assay type: cell-based, human; design: HDAC 1 expression / HDAC 2 expression / HDAC 3 expression / HDAC 4 expression / HDAC 5 expression / HDAC 6 expression / HDAC 7 expression / HDAC 8 expression / HDAC 9 expression / HDAC 10 expression / HDAC 11 expression: scale not given here; conditions: 6 h
# Description: Generation of erlotinib, afatinib and osimertinib-resistant cells. Cells were incubated in vitro with increasing concentrations of vehicle control or erlotinib or osimertinib until after ˜6 weeks the HCC827 and H1975 and H1650 cells grew with similar kinetics to sensitive cells in either erlotinib ([…]) or osimertinib ([…]), respectively. Afatinib-resistant cells were created in vivo by repeated high dosing until tumors disappeared and then regrew, as previously described.
# (§1) Assessments of protein expression and protein phosphorylation. Multi-channel fluorescence HCS microscopes perform true in-cell western blotting. Three independent cultures derived from three thawed vials of cells of a tumor were sub-cultured into individual 96-well plates. Twenty-four hours after plating, the cells are transfected with a control plasmid or a control siRNA, or with an empty vector plasmid or with plasmids to express various proteins. After another 24 hours, the cells are ready for drug exposure(s). At various time-points after the initiation of drug exposure, cells are fixed in place using paraformaldehyde and using Triton X100 for permeabilization. Standard immunofluorescent blocking procedures are employed, followed by incubation of different wells with a variety of validated primary antibodies and subsequently validated fluorescent-tagged secondary antibodies are added to each well. The microscope determines the background fluorescence in the well and in parallel randomly determines the mean fluorescent intensity of 100 cells per well.
# H1650 cells (wild type) = assay: In-cell immunostaining of protein expression and phosphorylation, H1650 wild type cells; assay type: cell-based, human; conditions: H1650 WT, 6 h; VEH = 100
# Description: as §1
# [2] = 1975 OR, GZ17-6.02 2 mM final curcumin, pemetrexed 500 nM
# [3] = 1975 OR, GZ17-6.02 2 mM final curcumin, pemetrexed 500 nM, vehicle 100%
# [4] = 1975 OR, GZ17-6.02, pemetrexed 500 nM, vehicle 100%
structure (smiles),measurement,setting,value
"Nc1nc2[nH]cc(CCc3ccc(C(=O)N[C@@H](CCC(=O)O)C(=O)O)cc3)c2c(=O)[nH]1 [PEM, Pemetrexed]",ERK2 expression,[1]; [2],101
same,HDAC 1 expression,[1]; [2],97
same,HDAC 2 expression,[1]; [2],93
same,HDAC 3 expression,[1]; [2],98
same,HDAC 4 expression,[1]; [2],100
same,HDAC 5 expression,[1]; [2],95
same,HDAC 6 expression,[1]; [2],93
same,HDAC 7 expression,[1]; [2],98
same,HDAC 8 expression,[1]; [2],101
same,HDAC 9 expression,[1]; [2],97
same,HDAC 10 expression,[1]; [2],100
same,HDAC 11 expression,[1]; [2],101
same,ATG5,[1]; [3],110%
same,Beclin1,[1]; [3],111%
same,CD95,[1]; [3],100%
same,CHOP,[1]; [3],107%
same,ERBB1,[1]; [3],99%
same,ERBB2,[1]; [3],100%
same,ERBB3,[1]; [3],101%
same,ERBB4,[1]; [3],100%
same,ERK2,[1]; [3],100%
same,FAS-L,[1]; [3],110%
same,GRP78,[1]; [3],115# %
same,P-AMPKα T172,[1]; [3],112%
same,P-ATG13 S318,[1]; [3],106%
same,P-ATM S1980,[1]; [3],109%
same,P-B1,[1]; [3],88%
same,P-B2,[1]; [3],92%
same,P-B3,[1]; [3],93%
same,P-B4,[1]; [3],95%
same,P-ERK1/2,[1]; [3],96%
same,P-JAK2,[1]; [3],89%
same,P-NFκB S536,[1]; [3],92%
same,P-PDGFRβ,[1]; [3],98%
same,P-PERK T980,[1]; [3],101%
same,P-SRC Y416,[1]; [3],90%
same,P-SRC Y527,[1]; [3],112%
same,P-STAT3 Y705,[1]; [3],88%
same,P-STAT5 Y694,[1]; [3],87* %
same,P-ULK1 S317,[1]; [3],103%
same,P-ULK1 S757,[1]; [3],96%
same,P-c-MET,[1]; [3],88%
same,P-c-MT,[1]; [3],90%
same,P-eIF2α S51,[1]; [3],101%
same,P-mTOR S2448,[1]; [3],94%
same,P-mTOR S2481,[1]; [3],92%
same,PDGFRβ,[1]; [3],100%
same,PP1,[1]; [3],105%
same,c-KIT,[1]; [3],101%
same,c-MET,[1]; [3],100%
same,p70 S6K,[1]; [3],101%
same,p70 S6K T389,[1]; [3],98%
same,JAK2,[1]; [4],98%
same,P-AKT T308,[1]; [4],87* %
same,BCL-XL expression,"[1]; H1975 OR, VEH = 100",90
same,ERK2 expression,"[1]; H1975 OR, VEH = 100",101
same,FLIP-s expression,"[1]; H1975 OR, VEH = 100",98
same,MCL-1 expression,"[1]; H1975 OR, VEH = 100",84*
same,BCL-XL expression,H1650 cells (wild type),84*
same,ERK2 expression,H1650 cells (wild type),100
same,FLIP-s expression,H1650 cells (wild type),92
same,MCL-1 expression,H1650 cells (wild type),83*
